Laboratory results from paper PMC10766962 (Nature Communications, 2024).
Several values for one entry are separate records, joined by “and”; a condition that tells them apart may be missing. Identical values can stand only once. Entries after “also recorded” stand apart in the source; their conditions may differ. Like-named read-outs stand apart in the source and are kept apart here. Positions of bridges follow the written chain, without caps; N, C: chain ends. Non-standard residues stand in square brackets, D forms with d. Residues, ends and D or L forms follow the SMILES beside them. Groups on a side chain read outwards from the residue. *: point of attachment. Acetyl(2-S-cholesteryl) = CC(C)CCC[C@@H](C)[C@H]1CC[C@H]2[C@@H]3CC=C4C[C@@H](SCC(=O)*)CC[C@]4(C)[C@H]3CC[C@]12C; R8 = C=CCCCCCC[C@@](C)(N)C(=O)O; PEG4 = NCCOCCOCCOCCOCCC(=O)O; S5 = C=CCCC[C@](C)(N)C(=O)O; Nle = CCCC[C@H](N)C(=O)O

Key:
[1] = target: SARS-CoV-2 5-helix bundle (5-HB) protein (Severe acute respiratory syndrome coronavirus 2, UniProt P0DTC2); assay: biochemical; assay type: binding
[2] = assay type: physicochemical
[3] = test system: SARS-CoV-2 WA-1 (Wuhan) isolate; design: species or system Syrian (Golden) hamsters; conditions: hamster, in vivo
[4] = test system: SARS-CoV-2 WA-1 (Wuhan) isolate; design: species or system Syrian (Golden) hamsters; conditions: hamster, in vivo; remark: listed apart in the source
[5] = assay type: physicochemical; conditions: pH 7.4
[6] = assay type: physicochemical; conditions: pH 7.5
[7] = test system: SARS-CoV-2 B.1.617.2 pseudovirus
[8] = test system: SARS-CoV-2 B.1.1.529.1 pseudovirus
[9] = test system: SARS-CoV-2 Beta B.1.351 live virus
[10] = test system: SARS-CoV-2 Delta B.1.617.2 live virus
[11] = mouse, in vivo
in vivo [12] = conditions: male, C57BL/6, mouse, inhaled or intranasal
in vivo [13] = conditions: male, Syrian (Golden), hamster, inhaled or intranasal, 2.5 mg/kg, Nasal Tissue
[14] = 1 mg/kg, RQ-01 Nasal Tissue Concentration
[15] = 3 mg/kg, RQ-01 Nasal Tissue Concentration
[16] = 10 mg/kg, RQ-01 Nasal Tissue Concentration

SMILES: CC[C@H](C)[C@H](NC(=O)CNC(=O)[C@H](CO)NC(=O)[C@@H](NC(=O)[C@H](CC(=O)O)NC(C)=O)[C@@H](C)CC)C(=O)N[C@@H](CC(N)=O)C(=O)N[C@@H](C)C(=O)N[C@@H](CO)C(=O)N[C@H](C(=O)N[C@H](C(=O)N[C@@H](CC(N)=O)C(=O)N[C@H](C(=O)N[C@]1(C)CCCCCCC=CCCC[C@@](C)(C(=O)N[C@@H](CCC(=O)O)C(=O)N[C@H](C(=O)N[C@@H](C)C(=O)N[C@@H](CCCCN)C(=O)N[C@@H](CC(N)=O)C(=O)N[C@@H](CC(C)C)C(=O)N[C@@H](CC(N)=O)C(=O)N[C@@H](CCC(=O)O)C(=O)N[C@@H](CO)C(=O)N[C@@H](CC(C)C)C(=O)N[C@H](C(=O)N[C@@H](CC(=O)O)C(=O)N[C@@H](CC(C)C)C(=O)N[C@@H](CCC(N)=O)C(=O)N[C@@H](CCC(=O)O)C(=O)N[C@@H](CC(C)C)C(=O)NCC(=O)N[C@@H](CCCCNC(=O)CCOCCOCCOCCOCCOCCOCCOCCOCCNC(=O)CO[C@H]2CC[C@@]3(C)C(=CC[C@H]4[C@@H]5CC[C@H]([C@H](C)CCCC(C)C)[C@@]5(C)CC[C@@H]43)C2)C(N)=O)[C@@H](C)CC)C(C)C)NC(=O)[C@H](CC(C)C)NC(=O)[C@H](CCCNC(=N)N)NC(=O)[C@H](CC(=O)O)NC(=O)[C@H]([C@@H](C)CC)NC(=O)[C@H](CCC(=O)O)NC(=O)[C@H](CCCCN)NC1=O)[C@@H](C)CC)C(C)C)C(C)C [RQ-01]
- EC50 [1]: 1.9 nM
- intact compound, % of initial levels ([2]; 25 μM): fully preserved
- Percent Intact Peptide ([2]; 1 h): 108.538% and 105.019% and 100.148% and 101.614%
- Percent Intact Peptide ([2]; 12 h): 100.519% and 101.487% and 97.3524% and 61.8294% and 103.036% and 91.5274% and 92.844% and 95.276%
- OP swab titer [3]: 10-20 PFUs
- lung histopathology (pneumonia global severity score, total lung score) [3]: significant protection from the pulmonary sequelae of SARS-CoV-2 infection
- viral shedding by OP swab [3]: significantly reduced
- weight loss [3]: significant protective effect from weight loss; also recorded: protection from weight loss was also observed
- OP swab titers (Day 3) [4]: A subset of hamsters from both RQ-01 treated cohorts exhibited reduced OP swab titers
- lung viral titers [4]: suppression of lung viral titers
- transmission to sentinel hamsters [4]: did not prevent transmission
- weight loss of sentinels [4]: protection from weight loss
- elution by fast protein liquid chromatography [5]: eluted as a monodispersed peak
- circular dichroism analysis [6]: exhibited α-helical character
- fold by which RQ-01 outperformed SARSHRC-PEG4-chol [7]: 4.7 fold
- fold by which RQ-01 outperformed SARSHRC-PEG4-chol [8]: 23 fold
- improvement of antiviral activity compared to the unstapled peptide [9]: 24 to 39 fold
- fold by which RQ-01 outperformed SARSHRC-PEG4-chol [10]: 5.4 fold
- clinical observations [11]: no adverse clinical findings
- nasal tissue exposure relative to IC90 value [11]: 100-2000 x IC90
- nasal tissue levels relative to infectivity assay IC90 [11]: over 100
- peak lung tissue concentration relative to nasal tissue ([11]; pH 6.5): approximately 1/10th
- plasma exposure relative to nasal tissue ([11]; pH 6.5): approximately 1/1000th
- nasal tissue level by 48 h ([11]; pH 7.2): 1 µM
- peak lung level ([11]; pH 7.2): 1 µM
- cytotoxicity (A549-ACE2 cells): no cytotoxicity
- level at time molar at 2 h (in vivo [12]; [14]): 16.2 µM
- level at time molar at 4 h (in vivo [12]; [14]): 22.5 µM
- level at time molar at 7 h (in vivo [12]; 1 mg/kg, RQ-01 Tissue Concentration): 0.064 µM
- level at time molar (in vivo [12]; 2 mg/kg, pH 7.2, nasal tissue level, start): 10 µM
- level at time molar at 2 h (in vivo [12]; [15]): 27.5 µM
- level at time molar at 4 h (in vivo [12]; [15]): 28.1 µM
- level at time molar at 7 h (in vivo [12]; [15]): 26.4 µM
- level at time molar at 24 h (in vivo [12]; [15]): 18.7 µM
- level at time molar at 2 h (in vivo [12]; [16]): 73 µM
- level at time molar at 4 h (in vivo [12]; [16]): 44.9 µM
- level at time molar at 7 h (in vivo [12]; [16]): 59.6 µM
- level at time molar at 24 h (in vivo [12]; [16]): 25.4 µM
- level at time molar at 4 h (in vivo [13]; RQ-01 tissue concentration): 23.2 µM
- level at time molar at 4 h (in vivo [13]; pH 6.5, RQ-01 tissue concentration): 28.8 µM

SMILES: CC[C@H](C)[C@H](NC(=O)[C@H](C)NC(=O)[C@H](CS)NC(=O)[C@H](CC(=O)O)NC(=O)[C@@H]1CCCN1C(=O)CNC(=O)[C@H](CC(C)C)NC(=O)[C@@H](NC(=O)[C@H](Cc1c[nH]cn1)NC(=O)[C@H](CS)NC(=O)[C@@H](NC(C)=O)[C@@H](C)O)[C@@H](C)CC)C(=O)N[C@@H](CCC(=O)O)C(=O)N1CCC[C@H]1C(=O)N[C@@H](Cc1c[nH]cn1)C(=O)N[C@@H](CC(=O)O)C(=O)N[C@@H](Cc1c[nH]c2ccccc12)C(=O)N[C@H](C(=O)N[C@]1(C)CCCCCCC=CCCC[C@@](C)(C(=O)N[C@@H](CCC(N)=O)C(=O)N[C@H](C(=O)N[C@H](C(=O)N[C@@H](Cc2c[nH]cn2)C(=O)N[C@@H](CC(=O)O)C(=O)N[C@@H](Cc2ccccc2)C(=O)N[C@H](C(=O)N[C@@H](CCCCNC(=O)CCOCCOCCOCCOCCNC(=O)CS[C@H]2CC[C@@]3(C)C(=CC[C@H]4[C@@H]5CC[C@H]([C@H](C)CCCC(C)C)[C@@]5(C)CC[C@@H]43)C2)C(N)=O)C(C)C)[C@@H](C)CC)[C@@H](C)CC)NC(=O)[C@H]([C@@H](C)CC)NC(=O)[C@H](CCCCN)NC(=O)[C@H](CC(=O)O)NC(=O)[C@H]([C@@H](C)O)NC(=O)[C@H]([C@@H](C)CC)NC(=O)[C@H](CCC(=O)O)NC1=O)[C@@H](C)O [SLI-EBOV] (Ac-TCHILGPDCAIEPHDWT[R8]EITDKI[S5]QIIHDFVK([PEG4-Acetyl(2-S-cholesteryl)])-NH2; staple 18-25)
- cytotoxicity (HeLa cells): no cytotoxicity

SMILES: CCCC[C@H](NC(=O)[C@H](CO)NC(=O)[C@H](CO)NC(=O)[C@@H](NC(=O)[C@H](CCC(N)=O)NC(=O)[C@H](CO)NC(=O)[C@H](CO)NC(=O)[C@@H](NC(=O)[C@H](CC(=O)O)NC(C)=O)[C@@H](C)CC)[C@@H](C)CC)C(=O)N[C@@H](CC(N)=O)C(=O)N[C@@H](CCC(N)=O)C(=O)N[C@@H](CO)C(=O)N[C@@H](CC(C)C)C(=O)N[C@]1(C)CCCCCCC=CCCC[C@@](C)(C(=O)N[C@@H](CCC(=O)O)C(=O)N[C@@H](C)C(=O)N[C@@H](CCC(N)=O)C(=O)N[C@@H](CCCCN)C(=O)N[C@H](C(=O)N[C@@H](CC(C)C)C(=O)N[C@@H](CC(=O)O)C(=O)N[C@H](C(=O)N[C@H](C(=O)N[C@@H](CCCCNC(=O)CCOCCOCCOCCOCCNC(=O)CS[C@H]2CC[C@@]3(C)C(=CC[C@H]4[C@@H]5CC[C@H]([C@H](C)CCCC(C)C)[C@@]5(C)CC[C@@H]43)C2)C(N)=O)C(C)C)[C@@H](C)O)[C@@H](C)CC)NC(=O)[C@H]([C@@H](C)CC)NC(=O)[C@H](Cc2ccc(O)cc2)NC(=O)[C@H](CC(=O)O)NC(=O)[C@H](CCCCN)NC(=O)[C@H](CO)NC(=O)[C@H](CCC(N)=O)NC1=O [SLI-NIPV] (Ac-DISSQISS[Nle]NQSL[R8]QSKDYI[S5]EAQKILDTVK([PEG4-Acetyl(2-S-cholesteryl)])-NH2; staple 14-21)
- cytotoxicity (293T cells): no cytotoxicity

SMILES: CC[C@H](C)[C@H](NC(=O)CNC(=O)[C@H](CO)NC(=O)[C@@H](NC(=O)[C@H](CC(=O)O)NC(C)=O)[C@@H](C)CC)C(=O)N[C@@H](CC(N)=O)C(=O)N[C@@H](C)C(=O)N[C@@H](CO)C(=O)N[C@H](C(=O)N[C@H](C(=O)N[C@@H](CC(N)=O)C(=O)N[C@H](C(=O)N[C@]1(C)CCCCCCC=CCCC[C@@](C)(C(=O)N[C@@H](CCC(=O)O)C(=O)N[C@H](C(=O)N[C@@H](C)C(=O)N[C@@H](CCCCN)C(=O)N[C@@H](CC(N)=O)C(=O)N[C@@H](CC(C)C)C(=O)N[C@@H](CC(N)=O)C(=O)N[C@@H](CCC(=O)O)C(=O)N[C@@H](CO)C(=O)N[C@@H](CC(C)C)C(=O)N[C@H](C(=O)N[C@@H](CC(=O)O)C(=O)N[C@@H](CC(C)C)C(=O)N[C@@H](CCC(N)=O)C(=O)N[C@@H](CCC(=O)O)C(=O)N[C@@H](CC(C)C)C(=O)NCC(=O)N[C@@H](CCCCN)C(N)=O)[C@@H](C)CC)C(C)C)NC(=O)[C@H](CC(C)C)NC(=O)[C@H](CCCNC(=N)N)NC(=O)[C@H](CC(=O)O)NC(=O)[C@H]([C@@H](C)CC)NC(=O)[C@H](CCC(=O)O)NC(=O)[C@H](CCCCN)NC1=O)[C@@H](C)CC)C(C)C)C(C)C [RQ-01 (- linker-lipid)]
- improvement of affinity compared to the unstapled HR2 peptide [1]: 7.5 fold
